US20250249025A1, “DRUG DELIVERY CARRIER UTILIZING PROPERTY OF D-ALLOSE BEING UPTAKEN BY CANCER CELL, DRUG DELIVERY METHOD, AND COMPOSITION FOR TREATING RENAL CELL CARCINOMA” (NATIONAL UNIVERSITY CORPORATION KAGAWA UNIVERSITY, priority 2019, published 2025)

How the values were obtained:
[1] = tested on: human carcinoma cell lines; type: cell-based; conditions: 48 h, 10 mM
Experimental: (§1) An uptake amount of a rare sugar, which had been added to a medium, into carcinoma cells was analyzed using the cell lines of three types of cancers. As the rare sugar, four kinds, that is, D-allose, D-allulose (D-psicose), L-allulose (L-psicose), and allitol were used, while D-glucose and fructose were used as a monosaccharide which was not a rare sugar.
(§2) Cells of each of the cell lines were cultured in RPMI-1640 media and during culturing, six sugars were each added to the resulting media and cultured. After culturing, an amount of each sugar taken up into the cells was analyzed. The medium to which no sugar was added during culturing was used as a control.
Used were human bladder carcinoma cell lines (RT112, 253), and J82), human prostatic carcinoma cell lines (LNCa, Du145, and PC-3), and human renal cell carcinoma cell lines (ACHN, Caki-I, and Caki-II). […]
After culturing for 48 hours, the attached human carcinoma cells were mechanically separated and collected in a Spitz tube together with the culture solution and floating cells. […] From the area thus obtained, the sugar content in the cells was determined using a calibration curve. With respect to the ketose, two peaks were found after labeling with ABEE so that the sugar content in the cells was determined from the calibration curves of both peaks.

liver tissue = assay: Liver tissue histology in renal cell carcinoma xenograft mouse models; type: in vivo; conditions: xenograft mice, intraperitoneal once a day, day 35; diagnosis by a medical specialist in pathology; FIG. 8
Experimental: The day when the tumor size of the renal cell carcinoma xenograft mouse models became 200 mm^3 or more was called day 0 and the intraperitoneal injection of a D-allose-containing solution was started from day 1. The solution injected is 0.4 mL of physiological saline or a solution obtained by dissolving 100 mg/kg or 400 mg/kg of D-allose in 0.4 mL physiological saline. The resulting solution was intraperitoneally injected into three groups of mice (Control, 100 mg/kg of D-allose, and 400 mg/kg of D-allose) once a day for 5 weeks in total. The body weight of the mice and the long and short diameters of the tumor were measured over time twice a week. It is to be noted that the tumor volume was obtained as a product of long diameter×short diameter×short diameter of the tumor×0.5. […]
The tissue of the excised tumor, kidney, and liver was fixed with a 4% paraformaldehyde phosphate buffer, embedded with paraffin, and sliced into a 4-μm thick section. The resulting sliced section was stained with hematoxylin and eosin and evaluated by a medical specialist in pathology. The influence of D-allose on the tumor tissue was evaluated by a necrosis area (%) and an image of the number of nuclear fissions (Cells/HPF). It is to be noted that the necrosis area was measured using an image recording software Nikon NIS—Elements D and figures after the decimal point were omitted. […]

[2] = tested on: human prostate carcinoma cell line LNCa; assay: Rare sugar uptake experiment, sugar content in disrupted cell suspension of LNCa; type: cell-based
Experimental: as §1, §2
(§3) Used were human bladder carcinoma cell lines (RT112, 253), and J82), human prostatic carcinoma cell lines (LNCa, Du145, and PC-3), and human renal cell carcinoma cell lines (ACHN, Caki-I, and Caki-II).
(§4) After cells were cultured in RPMI-1640 (2000 mg D-glucose/L) media, the above monosaccharides and rare sugars were added to the resulting media, respectively. Described specifically, they were following seven combinations: RPMI-1640 alone (control), RPMI-1640+D-glucose, RPMI-1640+L-allulose, RPMI-1640+D-allulose, RPMI-1640+D-fructose, RPMI-1640+D-allose, and RPMI-1640+D-allitol. The final concentration of the sugar in the medium was adjusted to 10 mM and no sugar was added in the control.
(§5) Five-ml portions of a 3.0×10^4 cells/ml cell suspension prepared using RPMI-1640 were seeded in dishes having a diameter of 6 cm (1.5×10^5 cells/dish) and cultured for 24 hours in the RPMI-1640 medium containing 2000 mg/l of D-glucose as a nutrient source. Twenty-four hours later, the media were changed to the culture solutions containing the monosaccharides and rare sugars described above in 2), respectively, followed by culturing for 48 hours.
(§6) After culturing for 48 hours, the attached human carcinoma cells were mechanically separated and collected in a Spitz tube together with the culture solution and floating cells. After the supernatant formed by centrifugation (4° C., 1200 rpm, and 5 minutes) was removed to obtain cell pellets alone, 5 ml of a phosphate buffer physiological saline (PBS) was added for the purpose of washing to obtain a cell suspension of the cell pellets. A gain, the resulting cell suspension was centrifuged at 4° C. and 1200 rpm for 5 minutes and the supernatant was removed. To the cell pellets after washing was added 1 ml of pure water to suspend them therein. Ultrasonic disruption (intensity: 40%, 30 seconds) was then performed and the monosaccharide in the disrupted cell suspension was labeled with ABEE, followed by analysis by HPLC. From the area thus obtained, the sugar content in the cells was determined using a calibration curve. With respect to the ketose, two peaks were found after labeling with ABEE so that the sugar content in the cells was determined from the calibration curves of both peaks.

[3] = tested on: human bladder carcinoma cell line 253J; assay: Rare sugar uptake experiment, sugar content in disrupted cell suspension of 253J; type: cell-based
Experimental: as §1, §2, §3, §4, §5, §6

[4] = tested on: human renal cell carcinoma cell line ACHN; assay: Rare sugar uptake experiment, sugar content in disrupted cell suspension of ACHN; type: cell-based
Experimental: as §1, §2, §3, §4, §5, §6

[5] = tested on: human bladder carcinoma cell line J82; assay: Rare sugar uptake experiment, sugar content in disrupted cell suspension of J82; type: cell-based
Experimental: as §1, §2, §3, §4, §5, §6

## O=C[C@H](O)[C@H](O)[C@H](O)[C@H](O)CO [D-allose]
[1]
  Uptake into the cells: found only in one (PC-3) of three human prostate carcinoma cell lines
Liver tissue
  Influence on the liver tissue: No influence
[2]; LNCa, named sugar added to RPMI-1640 at 10 mM, 48 hours, HPLC after ABEE labeling
  D-glucose content in cell: 11.2 µg
[2]; human, 48 h, 10 mM
  Content in cell of the added sugar: 0.0 µg
[3]; 253J, named sugar added to RPMI-1640 at 10 mM, 48 hours, HPLC after ABEE labeling
  D-glucose content in cell: 11.5 µg
[3]; human, 48 h, 10 mM
  Content in cell of the added sugar: 0.0 µg
[4]; ACHN, named sugar added to RPMI-1640 at 10 mM, 48 hours, HPLC after ABEE labeling
  D-glucose content in cell: 1.8 µg
[4]; human, 48 h, 10 mM
  Content in cell of the added sugar: 11.2 µg
[5]; J82, named sugar added to RPMI-1640 at 10 mM, 48 hours, HPLC after ABEE labeling
  D-glucose content in cell: 11.2 µg
[5]; human, 48 h, 10 mM
  Content in cell of the added sugar: 0.0 µg
